#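 Interpolation was linear, between the two tested concentrations surrounding the appropriate level; five concentrations were tested over 48 hours in 96-well plates. At the GI50, growth is halved. TGI is the concentration that stops growth completely.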
# Columns and labels:
# Assay in all cases: NCI tumour cell line growth inhibition, 48 h
# A549 NSCLC = test system: A549 NSCLC
# EKVX NSCLC = test system: EKVX NSCLC
# MOLT-4 leukemia = test system: MOLT-4 leukemia
# U251 CNS = test system: U251 CNS
# HCT-15 colon = test system: HCT-15 colon
# NCI-H460 lung = test system: NCI-H460 lung
# 786-0 renal = test system: 786-0 renal
# UACC-257 melanoma = test system: UACC-257 melanoma
# COLO 205 colon = test system: COLO 205 colon
# ACHN renal = test system: ACHN renal
SMILES,GI50 (A549 NSCLC) [µM],TGI (A549 NSCLC) [µM],GI50 (EKVX NSCLC) [µM],TGI (EKVX NSCLC) [µM],GI50 (MOLT-4 leukemia) [µM],TGI (MOLT-4 leukemia) [µM],GI50 (U251 CNS) [µM],TGI (U251 CNS) [µM],GI50 (HCT-15 colon) [µM],TGI (HCT-15 colon) [µM],GI50 (NCI-H460 lung) [µM],TGI (NCI-H460 lung) [µM],GI50 (786-0 renal) [µM],TGI (786-0 renal) [µM],GI50 (UACC-257 melanoma) [µM],TGI (UACC-257 melanoma) [µM],GI50 (COLO 205 colon) [µM],TGI (COLO 205 colon) [µM],GI50 (ACHN renal) [µM],TGI (ACHN renal) [µM]
COC1=CC(c2ccc[nH]2)=N/C1=C\c1ccc[nH]1,0.201,12.6,0.61,16.4,0.0317,33.7,0.379,12.4,0.0337,12.3,0.0595,10.9,0.192,0.712,0.375,9.24,0.0897,5.7,0.226,11.3
NCc1nnn(Cc2ccccc2)c1N,–,> 100,–,> 100,–,> 100,–,> 100,–,> 100,–,> 100,–,> 100,–,> 100,–,> 100,–,> 100
N#Cc1ccnc(N2C(=O)CC[C@H]2C(=O)N(c2cncc(F)c2)[C@H](C(=O)NC2CC(F)(F)C2)c2ccccc2Cl)c1,65.8,> 100,99.2,> 100,30.5,> 100,> 100,> 100,88.6,> 100,73.3,> 100,> 100,> 100,> 100,> 100,> 100,> 100,> 100,> 100
Nc1ccn(C2CC(CO)C(O)C2O)c(=O)n1 (stereo not given),–,> 57.7,–,> 57.7,–,> 57.7,–,> 57.7,–,> 57.7,–,> 57.7,–,> 57.7,–,> 57.7,–,> 57.7,–,> 57.7
C1=Cc2nc1c(-c1ccncc1)c1ccc([n-]1)c(-c1ccncc1)c1nc(c(-c3ccncc3)c3ccc([n-]3)c2-c2ccncc2)C=C1.[Zn+2],–,> 100,–,> 100,–,> 100,–,> 100,–,> 100,–,> 100,–,> 100,–,> 100,–,> 100,–,> 100
COc1ccc2nc3ccccc3c(NCCCCCCN(C)CCCl)c2c1,–,3.34,–,3.45,–,0.165,–,1.75,–,2.01,–,1.46,–,1.53,–,3.19,–,1.52,–,2.36
CC(C)OP(=O)(OC(C)C)C(=Nc1ccccc1)NNc1ccc([N+](=O)[O-])cc1,–,88.5,–,> 100,–,41.9,–,52.5,–,> 100,–,> 100,–,83.3,–,> 100,–,51.5,–,92.5
CN(C)CCCc1c[nH]c2ccccc12,–,> 100,–,> 100,–,> 100,–,> 100,–,> 100,–,> 100,–,> 100,–,> 100,–,> 100,–,> 100
COc1ccccc1CNCCCN1C(=O)c2ccc3c4c(ccc(c24)C1=O)C(=O)N(CCCNCCCN)C3=O,0.13,2.13,1.02,2.99,0.182,1.99,0.106,1.62,0.886,3.76,0.146,1.41,0.712,7.18,0.607,1.98,0.456,1.85,0.526,10.3
Cc1ccc(S(=O)(=O)N2CCc3ccc(O)c4c3C2Cc2cc(Cl)ccc2-4)cc1 (stereo not given),1.16,5.44,2.52,28.8,1.51,10.2,0.972,3.77,1.35,6.97,1.03,3.74,2.3,9.59,1.45,7.08,8.12,26.2,2.06,23.5
OCC12C3C4C1C1C2C3C41CO (stereo not given),–,> 100,–,> 100,–,> 100,–,> 100,–,> 100,–,> 100,–,> 100,–,> 100,–,> 100,–,> 100
CCC(C)C(NC(=O)C1CCCN1C(=O)C(NC(=O)C(C)N)C(C)C)C(N)=O (stereo not given),> 100,> 100,77.2,> 100,> 100,> 100,> 100,> 100,> 100,> 100,> 100,> 100,> 100,> 100,> 100,> 100,> 100,> 100,> 100,> 100
COP1(=O)Oc2ccccc2C(=O)C(C(F)(F)F)(C(F)(F)F)O1 (stereo not given),–,> 100,–,> 100,–,> 100,–,> 100,–,> 100,–,> 100,–,> 100,–,> 100,–,> 100,–,> 100
O=c1cnn2c(n1)sc1ccc3ccccc3c12,–,> 100,–,> 100,–,> 100,–,> 100,–,> 100,–,> 100,–,> 100,–,> 100,–,> 100,–,> 100
COc1ccc(NC(=O)c2sc3nc(C)c(C(O)c4ccccc4)cc3c2N)cc1 (stereo not given),0.7,> 100,4.38,> 100,3.57,34,3.58,> 100,1.44,> 100,0.357,1.65,4.63,> 100,3.86,46.1,3.08,13.9,4.09,> 100
Nc1ncnc2c1ncn2C1OC(CO)=CC1O (stereo not given),–,> 37.5,–,> 37.5,–,> 37.5,–,> 37.5,–,> 37.5,–,> 37.5,–,> 37.5,–,> 37.5,–,> 37.5,–,> 37.5
O=C(O)CC/C(=N\Nc1nsc2ccccc12)c1ccc(Cl)cc1,–,> 82.2,–,> 100,–,73.5,–,82.4,–,53.5,–,> 81.5,–,> 100,–,> 67.4,–,> 100,–,> 80.6
Cc1cc(Cl)ccc1N=C1NC(=O)C(CC(=O)Nc2ccc(Cl)cc2Cl)S1 (stereo not given),–,> 100,–,> 100,–,> 100,–,> 100,–,> 100,–,> 100,–,> 100,–,> 100,–,> 100,–,> 100
Cc1cc(Cl)cc2c1NC(=O)C2(O)C(C)C(=O)c1ccc(Cl)cc1 (stereo not given),–,> 100,–,> 100,–,87.7,–,> 100,–,> 100,–,> 100,–,> 100,–,> 66.2,–,> 100,–,> 100
Cc1ccc(C)c(NC(=O)CC/C(=N\NC(=O)C(N)=O)C(C)C(=O)c2ccc(O)cc2)c1 (stereo not given),–,> 100,–,> 100,–,> 100,–,> 100,–,> 100,–,> 100,–,> 100,–,> 100,–,> 100,–,> 100
CCOC(=O)c1cn(Cc2ccccc2)c(=O)n1Cc1ccccc1,–,> 100,–,> 100,–,> 100,–,> 100,–,> 100,–,> 100,–,> 100,–,> 100,–,> 100,–,> 100
COc1ccc2c(c1)CCC1C2CC[C@]2(C)/C(=N/OC(=O)Cc3ccccc3)CCC12 (stereo not given in full),19.3,42.7,19.4,44.1,17.2,35.8,19.6,37.4,18,36.3,14.6,30.4,18.3,33.3,18.7,38.4,21.7,58.6,16.4,32
